According to ChEMBL document CHEMBL3875211, “Design and synthesis of new coumarin hybrids and insight into their mode of antiproliferative action” (Bioorg Med Chem, 2017):
Calls of active or inactive are those of the source. The rule behind the calls is not given here.

Key:
[1] = test system: K562; experiment: Induction of apoptosis in human K562 cells assessed as increase in caspase-3 protein expression at 0.49 uM after 24 hrs by ELISA; format: functional, cell-based
[2] = Cell cycle arrest in human K562 cells assessed as accumulation at G1 phase at 0.49 uM after 24 hrs by propidium iodide staining based flow cytometry (reference value: 68.2%); format: functional
[3] = test system: K562; experiment: Induction of apoptosis in human K562 cells assessed as increase in caspase-9 protein expression at 0.49 uM after 24 hrs by ELISA; format: functional, cell-based
[4] = test system: K562; experiment: Induction of apoptosis in human K562 cells assessed as decrease in Bcl2 mRNA expression at antiproliferative IC50 by RT-PCR method; format: functional, cell-based
[5] = test system: K562; experiment: Induction of apoptosis in human K562 cells assessed as increase in Bax mRNA expression at antiproliferative IC50 by RT-PCR method; format: functional, cell-based
[6] = Cell cycle arrest in human K562 cells assessed as accumulation at S phase at 0.49 uM after 24 hrs by propidium iodide staining based flow cytometry (reference value: 21.7%); format: functional
[7] = Cytotoxicity against human WI38 cells assessed as reduction in cell viability after 48 hrs by MTT assay; format: toxicity, cell-based, WI-38
[8] = Antiproliferative activity against human HepG2 cells after 48 hrs by MTT assay; format: functional, cell-based; details: HepG2, 48 h
[9] = Cell cycle arrest in human K562 cells assessed as accumulation at G2 phase at 0.49 uM after 24 hrs by propidium iodide staining based flow cytometry (reference value: 9.3%); format: functional
[10] = Antiproliferative activity against human K562 cells after 48 hrs by MTT assay; format: functional, cell-based; details: K562, 48 h
[11] = test system: K562; experiment: Induction of apoptosis in human K562 cells at 0.49 uM after 24 hrs by propidium iodide staining based flow cytometry (reference value: 0.8%); format: functional
[12] = test system: K562; experiment: Induction of apoptosis in human K562 cells assessed as increase in caspase-3 protein expression at 1.21 uM after 24 hrs by ELISA; format: functional, cell-based
[13] = test system: K562; experiment: Induction of apoptosis in human K562 cells assessed as increase in caspase-9 protein expression at 1.21 uM after 24 hrs by ELISA; format: functional, cell-based
[14] = test system: K562; experiment: Induction of apoptosis in human K562 cells assessed as increase in caspase-3 protein expression at 1.24 uM after 24 hrs by ELISA; format: functional, cell-based
[15] = test system: K562; experiment: Induction of apoptosis in human K562 cells assessed as increase in caspase-9 protein expression at 1.24 uM after 24 hrs by ELISA; format: functional, cell-based
[16] = test system: HepG2; experiment: Induction of apoptosis in human HepG2 cells assessed as increase in Bax mRNA expression at antiproliferative IC50 by RT-PCR method; format: functional, cell-based
[17] = test system: HepG2; experiment: Induction of apoptosis in human HepG2 cells assessed as decrease in Bcl2 mRNA expression at antiproliferative IC50 by RT-PCR method; format: functional, cell-based
[18] = test system: HepG2; experiment: Induction of apoptosis in human HepG2 cells assessed as increase in caspase-9 protein expression at 0.77 uM after 24 hrs by ELISA; format: functional, cell-based
[19] = test system: HepG2; experiment: Induction of apoptosis in human HepG2 cells assessed as increase in caspase-3 protein expression at 0.77 uM after 24 hrs by ELISA; format: functional, cell-based
[20] = test system: K562; experiment: Induction of apoptosis in human K562 cells assessed as increase in caspase-3 protein expression at 0.93 uM after 24 hrs by ELISA; format: functional, cell-based
[21] = test system: K562; experiment: Induction of apoptosis in human K562 cells assessed as increase in caspase-9 protein expression at 0.93 uM after 24 hrs by ELISA; format: functional, cell-based
[22] = test system: HepG2; experiment: Induction of apoptosis in human HepG2 cells assessed as increase in caspase-9 protein expression at 0.65 uM after 24 hrs by ELISA; format: functional, cell-based
[23] = Cell cycle arrest in human HepG2 cells assessed as accumulation at G2 phase at 0.65 uM after 24 hrs by propidium iodide staining based flow cytometry (reference value: 7.2%); format: functional
[24] = test system: HepG2; experiment: Induction of apoptosis in human HepG2 cells at 0.65 uM after 24 hrs by propidium iodide staining based flow cytometry (reference value: 1.2%); format: functional
[25] = Cell cycle arrest in human HepG2 cells assessed as accumulation at S phase at 0.65 uM after 24 hrs by propidium iodide staining based flow cytometry (reference value: 25.2%); format: functional
[26] = Cell cycle arrest in human HepG2 cells assessed as accumulation at G1 phase at 0.65 uM after 24 hrs by propidium iodide staining based flow cytometry (reference value: 66.4%); format: functional
[27] = test system: HepG2; experiment: Induction of apoptosis in human HepG2 cells assessed as increase in caspase-3 protein expression at 0.65 uM after 24 hrs by ELISA; format: functional, cell-based

## COc1cc(/C=C(\C#N)C(=O)N/N=C(\C)c2cc3cccc(OC)c3oc2=O)cc(OC)c1OC
[1]
  Activity: Active
[2]
  Activity: 44.6%
[3]
  Activity: Active
[4]
  Activity: Active
[5]
  Activity: Active
[6]
  Activity: 30.2%
[7]
  IC50 at 48 h: 11.1 µM
[8]
  IC50: 1.57 µM
[9]
  Activity: 15.5%
[10]
  IC50: 0.49 µM
[11]
  Activity: 9.7%

## COc1ccc(-c2cc(-c3cc4cccc(OC)c4oc3=O)nc(C#N)c2N)cc1
[12]
  Activity: Active
[7]
  IC50 at 48 h: 8.66 µM
[8]
  IC50: 1.25 µM
[13]
  Activity: Active
[10]
  IC50: 1.21 µM

## CCOC(=O)c1ccc(-c2cc3cccc(OC)c3oc2=O)nc1C
[7]
  IC50 at 48 h: 67.7 µM
[8]
  IC50: 4.92 µM
[10]
  IC50: 8.82 µM

## COc1cccc2cc(-c3ccc(C(C)=O)c(C)n3)c(=O)oc12
[14]
  Activity: Active
[7]
  IC50 at 48 h: 354 µM
[8]
  IC50: 9.1 µM
[10]
  IC50: 1.24 µM
[15]
  Activity: Active

## COc1cccc2c1C(=O)c1c(O)c3c(c(O)c1C2=O)C[C@@](O)(C(=O)CO)C[C@@H]3O[C@H]1C[C@H](N)[C@H](O)[C@H](C)O1 [DOXORUBICIN]
[8]
  IC50: 4.93 µM
[10]
  IC50: 2.96 µM

## COc1ccc(C[C@@H](O)c2cc(OC)c(OC)c(OC)c2)cc1O [COMBRETASTATIN]
[8]
  IC50: 3.4 µM
[10]
  IC50: 3.46 µM

## COc1cc(/C=C/C(=O)c2cc3cccc(OC)c3oc2=O)cc(OC)c1OC
[7]
  IC50 at 48 h: 9.55 µM
[8]
  IC50: 2.02 µM
[10]
  IC50: 1.36 µM

## COc1ccc(/C=C(\C#N)C(=O)N/N=C(\C)c2cc3cccc(OC)c3oc2=O)cc1
[16]
  Activity: Active
[17]
  Activity: Active
[18]
  Activity: Active
[7]
  IC50 at 48 h: 48.4 µM
[8]
  IC50: 0.77 µM
[19]
  Activity: Active
[10]
  IC50: 3.96 µM

## COc1ccc(/C=C/C(=O)c2cc3cccc(OC)c3oc2=O)cc1OC
[4]
  Activity: Active
[5]
  Activity: Active
[7]
  IC50 at 48 h: 33.1 µM
[8]
  IC50: 0.82 µM
[10]
  IC50: 0.93 µM
[20]
  Activity: Active
[21]
  Activity: Active

## COc1ccc(/C=C(\C#N)C(=O)N/N=C(\C)c2cc3cccc(OC)c3oc2=O)cc1OC
[7]
  IC50 at 48 h: 3.3 µM
[8]
  IC50: 0.93 µM
[10]
  IC50: 8.71 µM

## COc1ccc(/C=C/C(=O)c2cc3cccc(OC)c3oc2=O)cc1
[16]
  Activity: Active
[22]
  Activity: Active
[23]
  Activity: 19.1%
[17]
  Activity: Active
[7]
  IC50 at 48 h: 293 µM
[8]
  IC50: 0.65 µM
[24]
  Activity: 16.3%
[10]
  IC50: 1.09 µM
[25]
  Activity: 28.8%
[26]
  Activity: 35.8%
[27]
  Activity: Active

## COc1ccc(-c2cc(-c3cc4cccc(OC)c4oc3=O)nc(C#N)c2N)cc1OC
[7]
  IC50 at 48 h: 36.1 µM
[8]
  IC50: 3.2 µM
[10]
  IC50: 1.61 µM
